Patent publication US20220351806A1, “Biomarker Panels for Guiding Dysregulated Host Response Therapy” (Endpoint Health Inc., priority 2019, published 2022)

Test system: sepsis patients
Assay: VANISH trial survival analysis, hydrocortisone vs placebo, by patient subtype classifier
Format: in vivo, human
Parameters: mortality reduction in the placebo group in comparison to the hydrocortisone group / Mortality rate: concentration or dose not given beside the values
Conditions: for Mortality reduction: Hydro vs Placebo; for hydro_alive / hydro_dead / mr: SS.B2 Model; for mr: 28-day mortality reduction hydro vs placebo; for Alive / Dead / Mortality rate / Survival rate: Hydro group
From the text: The test expression data from each trial were normalized by the platform normalization matrix described above^13 so that the test data were more consistent with the training data. The classifiers (e.g., the Full Model, the SS Model, the S Model, and the P Model) were then applied to the normalized data such that the patients were classified into A, B, and C subtypes. […] Therefore, each sample in the target samples was normalized independently with the normalization matrix of the sample array platform.
Survival and mortality rates were calculated at day 28 because survival and mortality labels at other time points were not available. […] Binomial and Chi-squared with continuity correction tests were used to test for the significance of these differences.
In one example, previously identified subtypes of sepsis patients were used to tune the model to identify these type A and B patients. Two distinct sepsis response signatures (SRS1 and SRS2) were identified in five public studies (E-MTAB-4421, E-MTAB-4451, E-MTAB-5273, E-MTAB-5274, and E-MTAB-7581), where HumanHT-12 v4 BeadChip were used to generate the gene expression profiles of the patient samples. The processed data of those five studies were downloaded and processed using R programming language and software environment for statistical analysis (version 3.6.3). The Bioconductor annotation package, illuminaHumanv4.db (version 1.26.0), was used to annotate microarray probes and expression levels of genes were determined by each individual probe or mean of probes belonging to the same gene. In order to remove cohort biases, the Bioconductor package, limma (version 3.42.2), was used to remove batch effects. Using ss.b2 panel genes, subtype A, B, and C scores were calculated by geometric mean of up/down genes.
To build the classifier, we defined E-MTAB-4421, E-MTAB-4451, E-MTAB-5273, and E-MTAB-5274 as the training dataset and VANISH (E-MTAB-7581) as the testing dataset. We used features (subtype A, B, and C scores) and class labels (SRS1 vs SRS2) in the training dataset to build a machine-learned classifier based on support-vector machine (SVM) method. SVM is a supervised machine learning method for classification analysis. The algorithm finds a single or a set of hyperplanes that maximize the margin among subtype A, B, and C scores. In order to capture non-linear data, the kernel function was used. R package e1071 was used to build the SVM classifier with following parameters: method=“C-classification”, kernal=“radial”, gamma=0.1, and cost=10.
The accuracy of the classifiers was evaluated by Leave-One-Out (LOO) cross-validation over the training dataset. Also the classifier was applied to 117 controlled samples from VANISH trial.
In addition to the SVM-method, thresholds can be employed to scores in order to define A vs. B labels. […] Therefore we applied a heuristic threshold (threshold=0) to subtype A and B scores to classify SRS1-like and SRS2-like in VANISH: SRS2-like label was assigned to samples with subtype A score >0 and subtype B score <0 and SRS1-like label was assigned to the rest of samples.
Besides the heuristic threshold, we also derived the thresholds for subtype A and B scores using the training dataset. Same as the SVM method, we defined E-MTAB-4421, E-MTAB-4451, E-MTAB-5273, and E-MTAB-5274 as the training dataset and VANISH (E-MTAB-7581) as the testing dataset.

[1] = class A, A score cutoff 0.0000, B score cutoff 0.0000, accuracy in training set 0.74830, 76.07% of patients
[2] = class A, A score cutoff 0.0000, B score cutoff 0.0000, accuracy in training set 0.74830, 76.92% of patients
[3] = class A, A score cutoff 0.0000, B score cutoff 0.0000, accuracy in training set 0.75283, 76.92% of patients
[4] = class A, A score cutoff 0.0000, B score cutoff 0.0000, accuracy in training set 0.75283, 82.91% of patients
[5] = class A, A score cutoff 0.0000, B score cutoff 0.0000, accuracy in training set 0.76871, 62.39% of patients
[6] = class A, A score cutoff 0.0000, B score cutoff 0.0000, accuracy in training set 0.76871, 76.92% of patients
[7] = class A, A score cutoff −0.0406, B score cutoff 0.1067, accuracy in training set 0.79592, 58.12% of patients
[8] = class A, A score cutoff −0.0406, B score cutoff 0.1067, accuracy in training set 0.79592, 74.36% of patients
[9] = class A, A score cutoff −0.1277, B score cutoff 0.3630, accuracy in training set 0.83673, 60.68% of patients
[10] = class A, A score cutoff −0.1277, B score cutoff 0.3630, accuracy in training set 0.83673, 70.09% of patients
[11] = class A, A score cutoff −0.2664, B score cutoff 0.3179, accuracy in training set 0.82483, 58.12% of patients
[12] = class A, A score cutoff −0.2664, B score cutoff 0.3179, accuracy in training set 0.82483, 60.68% of patients
[13] = class B, A score cutoff 0.0000, B score cutoff 0.0000, accuracy in training set 0.74830, 23.08% of patients
[14] = class B, A score cutoff 0.0000, B score cutoff 0.0000, accuracy in training set 0.74830, 23.93% of patients
[15] = class B, A score cutoff 0.0000, B score cutoff 0.0000, accuracy in training set 0.75283, 17.09% of patients
[16] = class B, A score cutoff 0.0000, B score cutoff 0.0000, accuracy in training set 0.75283, 23.08% of patients
[17] = class B, A score cutoff 0.0000, B score cutoff 0.0000, accuracy in training set 0.76871, 23.08% of patients
[18] = class B, A score cutoff 0.0000, B score cutoff 0.0000, accuracy in training set 0.76871, 37.61% of patients
[19] = class B, A score cutoff −0.0406, B score cutoff 0.1067, accuracy in training set 0.79592, 25.64% of patients
[20] = class B, A score cutoff −0.0406, B score cutoff 0.1067, accuracy in training set 0.79592, 41.88% of patients
[21] = class B, A score cutoff −0.1277, B score cutoff 0.3630, accuracy in training set 0.83673, 29.91% of patients
[22] = class B, A score cutoff −0.2664, B score cutoff 0.3179, accuracy in training set 0.82483, 39.32% of patients
[23] = class B, A score cutoff −0.2664, B score cutoff 0.3179, accuracy in training set 0.82483, 41.88% of patients
[24] = VANISH trial, day 28, Full Model, Total
[25] = VANISH trial, day 28, Full Model, subtype A
[26] = VANISH trial, day 28, Full Model, subtype B

SMILES: C[C@]12CCC(=O)C=C1CC[C@@H]1[C@@H]2[C@@H](O)C[C@@]2(C)[C@H]1CC[C@]2(O)C(=O)CO [Hydro, hydrocortisone]
- Mortality reduction (1-(lower/higher mortality rate), VANISH trial, day 28, Full Model, Total): 33.0%
- Mortality reduction (1-(lower/higher mortality rate), VANISH trial, day 28, Full Model, subtype A): 64.6%
- Mortality reduction (1-(lower/higher mortality rate), VANISH trial, day 28, Full Model, subtype B): 35.2%
- Mortality reduction (1-(lower/higher mortality rate), VANISH trial, day 28, Full Model, subtype C): 56.8%
- Mortality reduction (1-(lower/higher mortality rate), VANISH trial, day 28, Full Model, subtypes CA): 60.6%
- Mortality reduction (1-(lower/higher mortality rate), VANISH trial, day 28, P Model, Total): 33.0%
- Mortality reduction (1-(lower/higher mortality rate), VANISH trial, day 28, P Model, subtype A): 77.6%
- Mortality reduction (1-(lower/higher mortality rate), VANISH trial, day 28, P Model, subtype B): 9.7%
- Mortality reduction (1-(lower/higher mortality rate), VANISH trial, day 28, P Model, subtypes CA): 56.5%
- Mortality reduction (1-(lower/higher mortality rate), VANISH trial, day 28, SS Model, Total): 33.0%
- Mortality reduction (1-(lower/higher mortality rate), VANISH trial, day 28, SS Model, subtype A): 86.0%
- Mortality reduction (1-(lower/higher mortality rate), VANISH trial, day 28, SS Model, subtype B): 20.0%
- Mortality reduction (1-(lower/higher mortality rate), VANISH trial, day 28, SS Model, subtype C): 4.0%
- Mortality reduction (1-(lower/higher mortality rate), VANISH trial, day 28, SS Model, subtypes CA): 42.2%
- Mortality reduction (1-(lower/higher mortality rate), VANISH trial, day 28, SS.B2 Model (SVM), Total): 33.0%
- Mortality reduction (1-(lower/higher mortality rate), VANISH trial, day 28, SS.B2 Model (SVM), type A (SRS2-like)): 77.3%
- Mortality reduction (1-(lower/higher mortality rate), VANISH trial, day 28, SS.B2 Model (SVM), type B (SRS1-like)): 24.2%
- Mortality reduction (VANISH trial, day 28, S Model, subtype C): Hydro
- Mortality reduction (VANISH trial, day 28, S Model, subtypes CA): Hydro
- hydro_alive [1]: 29
- hydro_dead [1]: 13
- mr [1]: 3.8%
- hydro_alive [2]: 29
- hydro_dead [2]: 13
- mr [2]: 5.8%
- hydro_alive [3]: 29
- hydro_dead [3]: 13
- mr [3]: 5.8%
- hydro_alive [4]: 32
- hydro_dead [4]: 15
- mr [4]: 12.3%
- hydro_alive [5]: 21
- hydro_dead [5]: 12
- mr [5]: 3.8%
- hydro_alive [6]: 29
- hydro_dead [6]: 13
- mr [6]: 5.8%
- hydro_alive [7]: 21
- hydro_dead [7]: 12
- mr [7]: 2.1%
- hydro_alive [8]: 29
- hydro_dead [8]: 13
- mr [8]: 0.5%
- hydro_alive [9]: 25
- hydro_dead [9]: 11
- mr [9]: 17.7%
- hydro_alive [10]: 28
- hydro_dead [10]: 13
- mr [10]: 0.0%
- hydro_alive [11]: 23
- hydro_dead [11]: 11
- mr [11]: 15.4%
- hydro_alive [12]: 24
- hydro_dead [12]: 12
- mr [12]: 10.3%
- hydro_alive [13]: 7
- hydro_dead [13]: 9
- mr [13]: 83.8%
- hydro_alive [14]: 7
- hydro_dead [14]: 9
- mr [14]: 85.2%
- hydro_alive [15]: 4
- hydro_dead [15]: 7
- mr [15]: 82.5%
- hydro_alive [16]: 7
- hydro_dead [16]: 9
- mr [16]: 83.8%
- hydro_alive [17]: 7
- hydro_dead [17]: 9
- mr [17]: 83.8%
- hydro_alive [18]: 15
- hydro_dead [18]: 10
- mr [18]: 86.8%
- hydro_alive [19]: 7
- hydro_dead [19]: 9
- mr [19]: 87.3%
- hydro_alive [20]: 15
- hydro_dead [20]: 10
- mr [20]: 79.2%
- hydro_alive [21]: 8
- hydro_dead [21]: 9
- mr [21]: 79.0%
- mr (class B, A score cutoff −0.1277, B score cutoff 0.3630, accuracy in training set 0.83673, 39.32% of patients): 83.3%
- hydro_alive [22]: 12
- hydro_dead [22]: 10
- mr [22]: 81.7%
- hydro_alive [23]: 13
- hydro_dead [23]: 11
- mr [23]: 82.5%
- mortality reduction in the placebo group in comparison to the hydrocortisone group (VANISH trial, 28-day, Type-A (SRS2-like) patients by SVM classifier on ss.b2 scores): 75.5%
- Alive [24]: 36
- Dead [24]: 22
- Mortality rate [24]: 37.9%
- Survival rate [24]: 62.1%
- Alive [25]: 9
- Dead [25]: 8
- Mortality rate [25]: 47.1%
- Survival rate [25]: 52.9%
- Alive [26]: 16
- Dead [26]: 6
- Mortality rate [26]: 27.3%
- Survival rate [26]: 72.7%
